Test results as given in patent publication US9321767B2, “Azabenzimidazoles as respiratory syncytial virus antiviral agents” (JANSSEN SCIENCES IRELAND UC, priority 2010, dated 2016).
pEC50: −log10 of the molar value. Where two headings read alike, the source gives them in different places.

Columns and labels:
[1] = system: HeLa cells; experiment: Cytotoxicity in HeLa cells, ATP content (ATPlite kit); type: cell-based
Experimental: (§1) Black 96-well clear-bottom microtiter plates (Corning, Amsterdam, The Netherlands) were filled in duplicate using a customized robot system with serial 4-fold dilutions of compound in a final volume of 50 μl culture medium [RPMI medium without phenol red, 10% FBS, 0.04% gentamycin (50 mg/mL) and 0.5% DMSO]. Then, 100 μl of a HeLa cell suspension (5×10^4 cells/mL) in culture medium was added to each well followed by the addition of 50 μl rgRSV224 (MOI=0.02) virus in culture medium using a multidrop dispenser (Thermo Scientific, Erembodegem, Belgium). rgRSV224 virus is an engineered virus that includes an additional GFP gene (Hallak et al, 2000) and was in-licensed from the NIH (Bethesda, Md., USA). Medium, virus- and mock-infected controls were included in each test. Cells were incubated at 37° C. in a 5% CO2 atmosphere. Three days post-virus exposure, viral replication was quantified by measuring GFP expression in the cells by a MSM laser microscope (Tibotec, Beerse, Belgium). The EC50 was defined as the 50% inhibitory concentration for GFP expression. In parallel, compounds were incubated for three days in a set of white 96-well microtitier plates (Corning) and the cytotoxicity of compounds in HeLa cells was determined by measuring the ATP content of the cells using the ATPlite kit (PerkinElmer, Zaventem, Belgium) according to the manufacturer's instructions. The CC50 was defined as the 50% concentration for cytotoxicity.

[2] = system: rgRSV224 virus; experiment: microbe, parasite or virus in culture; type: cell-based, respiratory syncytial virus (RSV); settings: read-out: RSV-wt_EC50
Experimental: as §1

[3] = HeLa cells, three days incubation, ATP content
[4] = human respiratory syncytial virus, HeLa, 72 h

CC(C)CCn1c(Cn2c(=O)n(C3CC3)c3ccncc32)nc2cc(C#N)cnc21 [Compound 27, 2-((1-cyclopropyl-2-oxo-1H-imidazo[4,5-c]pyridin-3(2H)-yl)methyl)-3-isopentyl-3H-imidazo[4,5-b]pyridine-6-carbonitrile]
TOX-HELA_EC50 [1, 3]: >98.3603 µM | pEC50 [2, 4]: 4.47

CC(C)CCn1c(Cn2c(=O)n(C3CC3)c3ccncc32)nc2cc(C(=O)O)cnc21 [Compound 28, 2-((1-cyclopropyl-2-oxo-1H-imidazo[4,5-c]pyridin-3(2H)-yl)methyl)-3-isopentyl-3H-imidazo[4,5-b]pyridine-6-carboxylic acid]
TOX-HELA_EC50 [1, 3]: >49.1802 µM | pEC50 [2, 4]: < 4.31

CC(C)CCn1c(Cn2c(=O)n(C(C)C)c3ccnc(C#N)c32)nc2cccnc21 [Compound 29, 3-((3-isopentyl-3H-imidazo[4,5-b]pyridin-2-yl)methyl)-1-isopropyl-2-oxo-2,3-dihydro-1H-imidazo[4,5-c]pyridine-4-carbonitrile]
TOX-HELA_EC50 [1, 3]: >98.3603 µM | pEC50 [2, 4]: < 4.01

CC(C)CCn1c(Cn2c(=O)n(C3CC3)c3ccccc32)nc2cnccc21 [Compound 31]
TOX-HELA_EC50 [1, 3]: >9.836 µM | pEC50 [2, 4]: 8.27

CC(C)CCn1c(Cn2c(=O)n(C3CC3)c3ccc(F)cc32)nc2cnccc21 [Compound 32]
TOX-HELA_EC50 [1, 3]: >9.836 µM | pEC50 [2, 4]: 7.95

CC(C)CCn1c(Cn2c(=O)n(C3CC3)c3ccncc32)nc2cnccc21 [Compound 33]
TOX-HELA_EC50 [1, 3]: >98.3603 µM | pEC50 [2, 4]: 7.52

CC(C)CCn1c(Cn2c(=O)n(C3CC3)c3ccncc32)nc2ccncc21 [Compound 34]
TOX-HELA_EC50 [1, 3]: >98.3603 µM | pEC50 [2, 4]: 7.13

O=c1n(Cc2nc3cnccc3n2CCCCO)c2cnccc2n1C1CC1 [Compound 35]
TOX-HELA_EC50 [1]: >98.3603 µM | pEC50 ([2]; rgRSV224 in HeLa cells, three days post-virus exposure, GFP expression): 7.10

CC(C)CCn1c(Cn2c(=O)n(C3COC3)c3ccncc32)nc2cnccc21 [Compound 36]
TOX-HELA_EC50 [1, 3]: >9.836 µM | pEC50 [2, 4]: 7.02

CN(C)c1nccc2c1nc(Cn1c(=O)n(C3CC3)c3ccncc31)n2CCCCO [Compound 37]
TOX-HELA_EC50 [1, 3]: >9.836 µM | pEC50 [2, 4]: 6.56

O=c1n(Cc2nc3c(Cl)nccc3n2CCCCOCc2ccccc2)c2cnccc2n1C1CC1 [Compound 38, 3-((1-(4-benzyloxy)butyl)-4-chloro-1H-imidazo[4,5-c]pyridin-2-yl)methyl-1-cyclopropyl-1H-imidazo[4,5-c]pyridin-2(3H)-one]
TOX-HELA_EC50 [1, 3]: >98.3603 µM | pEC50 [2, 4]: 5.83

O=c1n(Cc2nc3nc(Cl)ccc3n2CCCC(F)(F)F)c2cnccc2n1C1CC1 [Compound 39, 3-((5-chloro-1-(4,4,4-trifluorobutyl)-1H-imidazo[4,5-b]pyridin-2-yl)methyl)-1-cyclopropyl-1H-imidazo[4,5-c]pyridin-2(3H)-one]
TOX-HELA_EC50 [1, 3]: >98.3603 µM | pEC50 [2, 4]: 9.02

O=c1n(Cc2nc3nc(Cl)ccc3n2CCCCF)c2cnccc2n1C1CC1 [Compound 40, 3-((5-chloro-1-(4-fluorobutyl)-1H-imidazo[4,5-b]pyridin-2-yl)methyl)-1-cyclopropyl-1H-imidazo[4,5-c]pyridin-2(3H)-one]
TOX-HELA_EC50 [1, 3]: >98.3603 µM | pEC50 [2, 4]: 8.70

O=c1n(Cc2nc3ncccc3n2CCCC(F)(F)F)c2cnccc2n1C1CC1 [Compound 41, 1-cyclopropyl-3-((1-(4,4,4-trifluorobutyl)-1H-imidazo[4,5-b]pyridin-2-yl)methyl)-1H-imidazo[4,5-c]pyridin-2(3H)-one]
TOX-HELA_EC50 [1, 3]: >98.3603 µM | pEC50 [2, 4]: 8.15

O=c1n(Cc2nc3ncccc3n2CCCCF)c2cnccc2n1C1CC1 [Compound 42, 1-cyclopropyl-3-((1-(4-fluorobutyl)-1H-imidazo[4,5-b]pyridin-2-yl)methyl)-1H-imidazo[4,5-c]pyridin-2(3H)-one]
TOX-HELA_EC50 [1, 3]: >98.3603 µM | pEC50 [2, 4]: 8.28

CC(C)CCn1c(Cn2c(=O)n(C3CC3)c3ccncc32)nc2nc(C(F)(F)F)ccc21 [Compound 44, 1-cyclopropyl-3-((1-isopentyl-5-(trifluoromethyl)-1H-imidazo[4,5-b]pyridin-2-yl)methyl)-1H-imidazo[4,5-c]pyridin-2(3H)-one]
TOX-HELA_EC50 [1, 3]: >98.3603 µM | pEC50 [2, 4]: 7.72
